Test results taken from article PMC6149683, “In Vitro Investigation of the Interaction of Tolbutamide and Losartan with Human Serum Albumin in Hyperglycemia States” (Molecules : A Journal of Synthetic Chemistry and Natural …, 2017).
Read-outs that look alike come from different tables or passages of the source.

Columns and labels:
[1] = system: T1, non-glycated (HSA) and glycated (gHSAFRC) human serum albumin, Sudlow's site I and II; test: Binding of fluorescent site-marker probes to glycated versus non-glycated albumin (fluorimetric titration)
T1 construct: human serum albumin (HSA, Lot No. 8234H) with fatty acids (fraction V) was purchased from MP Biomedicals LLC; purchased MP Biomedicals LLC (Illkirch, France) Lot No. 8234H (a lot number; no catalogue number given)

plasma protein = details: cited from earlier work
[2] = albumin 5 × 10^−6 mol∙L^−1 titrated with probe, 37 °C, Figure 7

CC(=O)CC(c1ccccc1)c1c(O)c2ccccc2oc1=O (centres unmarked) [WAR, warfarin]
probe fluorescence / binding with gHSAFRC compared with HSA [1]: stronger than with non-glycated albumin

CCCCc1nc(Cl)c(CO)n1Cc1ccc(-c2ccccc2-c2nn[nH]n2)cc1 [LOS, (2-butyl-4-chloro-1-{[2′-(1H-tetrazol-5-yl)-4-biphenylyl]methyl}-1H-imidazol-5-yl)methanol]
bound with plasma protein (plasma protein): 98.6–98.8%

CN(C)c1cccc2c(S(=O)(=O)N3CCC[C@H]3C(=O)O)cccc12 [dPro, N-dansyl-L-proline]
probe fluorescence / binding with gHSAFRC compared with HSA [1, 2]: stronger for glycated than non-modified albumin

CN(C)c1cccc2c(S(=O)(=O)N[C@@H](CCC(N)=O)C(=O)O)cccc12 [dGln, dansyl-L-glutamine]
probe fluorescence / binding with gHSAFRC compared with HSA [1, 2]: stronger for glycated than non-modified albumin

CN(C)c1cccc2c(S(N)(=O)=O)cccc12 [DNSA, 5-dimethylaminonaphthalene-1-sulfonamide]
probe fluorescence / binding with gHSAFRC compared with HSA [1, 2]: no significant difference in the fluorescence intensity
